# From patent US20220133652A1, “A FORMULATION FOR IMPROVING SEIZURE CONTROL” (ZOGENIX INTERNATIONAL LIMITED, priority 2019, published 2022)
# Key:
# [1] = tested on: super-refractory status epilepticus; test: Case study: fenfluramine in patient in medically-induced coma, weaning from general anesthesia; format: in vivo, human
# Description: Fenfluramine was tested on a patient with an established diagnosis Dravet Syndrome (DS) (February, 2008) and having undergone confirmatory genetic testing, they were hospitalized in November 2018 and had been in an intensive care unit (ICU) under general anesthesia for management of super-refractory status epilepticus. At the beginning of the testing period, they had been in the ICU for around 32 days, and multiple attempts to wean them from anesthetic agents (pentobarbital and ketamine) were unsuccessful, with repetitive and then continuous tonic seizures recurring within hours. Table 1, below, provides a complete list of all anti-epileptic drugs (AEDs) assayed in managing the patient's seizures. Some had been determined to lack efficacy, while those marked as current were still being administered.
# After these other AEDs failed, the attending physician tested fenfluramine, beginning on Dec. 19, 2018. A baseline echocardiogram was taken with the patient still in ICU setting. The patient's medications (beyond anesthetic agents) at that time included valproic acid, levetiracetam, clobazam, phenobarbital, ketosis, and VNS therapy, and felbamate was most recently added after failure of the last attempt to withdraw anesthesia.
# (§1) Fenfluramine was administered as an oral solution via a gastric feeding tube at an initial dose of 0.5 mg/kg/day for about 5 days. An echocardiogram was performed to screen for cardiac valve abnormalities (CVD) and/or pulmonary arterial hypertension (PAH) and to establish a baseline for subsequent echocardiograms which will be used to monitor the patient's cardiovascular status over the treatment period, and repeated approximately every 3 months over the next year of continuing fenfluramine administration. […] After 4 days of fenfluramine administration Patient was able to be weaned from general anesthesia without return to seizures and the immediate crisis resolved, however, seizures began to recur after 3 more days without anesthesia and the fenfluramine dosage was adjusted up to 0.8 mg/kg/day and bolus doses of valproate or phenobarbital were administered as needed. The treating physician assessed the patient as having emerged from the SRSE crisis about 2 weeks after initiation of fenfluramine therapy. The patient remains on fenfluramine, along with levetiracetam, clobazam and valproate, and was discharged from the ICU about 1 month (approximately 32 days) after initiation of fenfluramine therapy.
# [2] = Serum samples of patient analyzed for fenfluramine and norfenfluramine; format: in vivo, human
# Description: as §1
# [3] = tested on: self-induced photosensitive seizures; conditions: four cases; cited from earlier work
# [4] = tested on: pattern sensitivity-induced seizures; conditions: one child; cited from earlier work
# refractory epilepsy = conditions: dose of 0.5 to 1 mg/kg/day, children; cited from earlier work
# [5] = reason for withdrawal from the US market in 1997; cited from earlier work
compound,measurement,setting,value
"CCNC(C)Cc1cccc(C(F)(F)F)c1 (racemic) [Fenfluramine, (RS)-N-ethyl-1-[3-(trifluoromethyl)phenyl]propan-2-amine]",Duration of administration after which patient was weaned from general anesthesia without return to seizures,"[1]; 0.5 mg/kg/day oral solution via gastric feeding tube, adjunctive to other AEDs, one patient",4 days
same,Time after initiation of therapy until patient assessed as emerged from the SRSE crisis,"[1]; 0.5 then 0.8 mg/kg/day, bolus valproate or phenobarbital as needed",about 2 weeks
same,Time without anesthesia until seizures began to recur,"[1]; after weaning, at 0.5 mg/kg/day, dose then adjusted up to 0.8 mg/kg/day",3 days
same,Seizure control in patients with SRSE,[1]; conclusion from the case of patient,improved seizure control
same,Time after initiation of therapy until discharge from the ICU,"[1]; patient remains on fenfluramine with levetiracetam, clobazam and valproate",approximately 32 days
same,concentration at 20 days after start of dosing,"[2]; human, 0.8 mg/kg/day, SUB 001, Visit 1, Timepoint 99, SAE 8 Jan. 2019, fenfluramine oral solution via gastric feeding tube, read-out: Conc. in serum",17.7 ng/mL
same,concentration at 21 days after start of dosing,"[2]; human, 0.8 mg/kg/day, SUB 001, Visit 2, Timepoint 99, SAE 9 Jan. 2019, fenfluramine oral solution via gastric feeding tube, read-out: Conc. in serum",17.8 ng/mL
same,concentration at 22 days after start of dosing,"[2]; human, 0.8 mg/kg/day, SUB 001, Visit 3, Timepoint 99, SAE 10 Jan. 2019, fenfluramine oral solution via gastric feeding tube, read-out: Conc. in serum",22.2 ng/mL
same,Response of self-induced photosensitive seizures to treatment,[3],responded to treatment
same,Effect on self-induced seizures,[4],successfully terminated these self-induced seizures
same,Effect on number of seizures,refractory epilepsy,reduction in the number of seizures
same,Adverse effects associated with use,[5],cardiac valvular fibrosis and pulmonary hypertension
CC(N)Cc1cccc(C(F)(F)F)c1 (stereo not drawn) [Norfenfluramine],Conc. in serum,"[2]; SUB 001, Visit 1, Timepoint 99, SAE 8 Jan. 2019, fenfluramine oral solution via gastric feeding tube",23.8 ng/mL
same,Conc. in serum,"[2]; SUB 001, Visit 2, Timepoint 99, SAE 9 Jan. 2019, fenfluramine oral solution via gastric feeding tube",23.1 ng/mL
same,Conc. in serum,"[2]; SUB 001, Visit 3, Timepoint 99, SAE 10 Jan. 2019, fenfluramine oral solution via gastric feeding tube",27.6 ng/mL
